Read-outs that look alike come from different tables or passages of the source. Blank lines part the entries; values can stand above or below the molecule they belong to.
Assays:
[1] = test system: human red blood cells (RBCs); experiment: Binding to human erythrocytes; conditions: FIG. 22A; in contrast to anti-CD47 5F9
cynomolgus RBCs = experiment: Binding to cynomolgus erythrocytes; conditions: FIG. 22B; in contrast to anti-CD47 5F9
[2] = test system: multidrug resistant N6ADR cells; experiment: N6ADR tumor volume in mice (Example 2, FIG. 9); type: in vivo; conditions: for effect on tumor volume with paclitaxel (chemosensitization): antibody dosed about 1-4 hrs prior to paclitaxel; for effect on tumor volume without paclitaxel: antibody on day 0, 4, 7, 11, no chemotherapeutic agent
Protocol: N6ADR cells were injected into a cohort of 6 mice per test group prior to administration of the indicated antibodies. The antibodies were administered once palpable tumors reached a size of about 100-150 mm^3 (about 7 days after injection of tumor cells). Antibodies were administered on day 0, day 4, day 7, and day 11. Tumor volumes were measured and are plotted. Panel A: 15D3/MRK16 monoclonal anti-MDR1 antibody. Panel B: KT14/MRK16 monoclonal anti-CD47 antibody. Panel C: Co-administration of 15D3/MRK16 monoclonal anti-MDR1 antibody and KT14/MRK16 monoclonal anti-CD47 antibody. Panel D: KbisP1.1 antibody.
The indicated antibodies were administered with or without the chemotherapeutic agent paclitaxel. Antibody was dosed about 1-4 hrs prior to Paclitaxel.

N6/ADR cells = experiment: Vincristine cytotoxicity assay; type: cell-based; conditions: Homo sapiens; Table 5; vincristine titrated with antibody at 100 μg/mL (2× final concentration); 72 hr
Protocol: Cytotoxicity Assays. The effect of antibodies on vincristine cytotoxicity was evaluated on N6/ADR, a doxorubicin-selected, B1-positive variant of the human acute lymphoblastic leukemia (ALL) cell line, NALM6. Cells were plated in 0.05 mL of Assay Media (RPMI-1640+10% FBS) at 5000 cells/well in white flat bottom 96-well tissue culture plates. Vincristine was prepared at 2× final assay concentration by serial dilution from 200 uM in assay media containing test antibodies or control antibodies at 100 μg/mL (2× final concentration), or valspodar, a small molecule B1 inhibitor at 7 uM (2× final concentration). An equivalent volume (0.05 mL) of the vincristine/antibody mixture was added to the N6/ADR cells in 96-well plates. The plates were then incubated at 37° C., in 5% CO2. After 72 hr plates were equilibrated to room temperature and cell viability assessed using Promega® CellTiter-Glo® Luminescent Cell Viability Assay according to the manufacturer's recommended protocol. Luminescence was measured on a Molecular Devices® FlexStation® 3 Multi-Mode Microplate Reader and data analyzed using GraphPad Prism 8.0 software.

[3] = Single dose cynomolgus monkey toxicity study; type: in vivo, cynomolgus monkeys (Macaca fascicularis); conditions: post infusion; paclitaxel 2 mg/kg
Source text: Fifteen cynomolgus monkeys (Macaca fascicularis) were enrolled in a single dose study to evaluate KbisP1.1 toxicity.

NALM6 cells = experiment: NALM6 subcutaneous tumors in SCID-Beige mice; type: in vivo; conditions: paclitaxel 5 mg/kg and 20 mg/kg
Protocol: NALM6 subcutaneous tumors: Mice were randomized into three groups of five mice each—(i) Control vehicle, (ii) 5 mg/kg and (iii) 20 mg/kg of paclitaxel.

NALM6 ADR cells = test system: NALM6 ADR cells
Source text: Cells: NALM6 (ATCC) and NALM6 ADR (ATCC), B cell precursor lymphoblastic leukemia cell lines used in this study. NALM6 ADR is a multidrug resistant cell line derived from NALM6 cells.
Mice: Sixty-five 5-6-weeks-old female SCID-Beige mice (Charles River) were used in this study.
Inoculation-2×10^6 cells diluted in PBS:Matrigel (1:1) were subcutaneously injected using a 27G insulin syringe into fifty anesthetized 5-6-week-old female SCID-Beige mice under sterile conditions.
NALM6 ADR subcutaneous tumors: Mice were randomized into nine groups of five mice each—(i) Control isotype IgG1 15 mg/kg, (ii) Control isotype IgG1 15 mg/kg and 5 mg/kg of paclitaxel, (iii) Control isotype IgG1 15 mg/kg and 20 mg/kg of paclitaxel, (iv) BisP1.1 15 mg/kg, (v) BisP1.1 15 mg/kg and 5 mg/kg of paclitaxel, (vi) BisP1.1 15 mg/kg and 20 mg/kg of paclitaxel (vii) Valspodar 20 mg/kg (viii) Valspodar 20 mg/kg and 5 mg/kg of paclitaxel and (ix) Valspodar 20 mg/kg and […]. Antibody, Valspodar and paclitaxel were dosed intraperitoneally twice a week for four consecutive weeks. Antibody/valspodar were injected at least 4 hours prior to paclitaxel injection. Paclitaxel preparation: Since paclitaxel is poorly soluble, a master stock of 50 mg/ml was prepared in absolute ethanol:Kolliphor (1:1). Prior to injection the stock was diluted to recommended doses of 5 mg/kg or 20 mg/kg with PBS maintaining a ratio of (1:16).
Measurements: Tumor measurements were done thrice a week using a calibrated Vernier Caliper and tumor volume calculated as per the formula ½*L*S*S where L is the long axis and s is the short axis of the tumor. Body weights were recorded before treatment started and were continuously monitored throughout the study. Animal survival was evaluated from the first day of treatment until death. To avoid suffering, mice were euthanized when turning moribund according to the above-mentioned predefined criteria: rapid weight loss, loss of ability to ambulate, labored respiration, or inability to drink or feed.
Statistics: Tumor volume and body weights were compared between different experimental groups using exact one-way analysis of variance (ANOVA). Kaplan-Meier survival curves were compared between different treatment groups using the log-rank (Mantel-Cox) test. Statistical analyses were performed using Graph Pad Prism (GraphPad, San Diego, CA, USA) software. The level of significance was set at p<0.05 for all analyses.

[4] = target: T1, PDL1 (293T cells overexpressing PDL1) (Homo sapiens, UniProt Q9NZQ7); experiment: PDL1 binding using 293T cells overexpressing PDL1
T1 construct: expressed in transfected cells; host or cells: 293T

[5] = target: MDR1 (293T cells overexpressing MDR1) (Homo sapiens, UniProt P08183)
Protocol: Binding specificity of the mAbs, Fab and Bispecific IgG1 was tested by FACS using 293T cell lines naturally expressing CD47, 293T naïve cells overexpressing human ABCB1 target, 293T naïve cells having ABCB1 knocked down using Lentiviral RNA vectors, CD47 knock out 293T cells and CD47 knock out 293T cells overexpressing human ABCB1. […] The cells were washed three times with FACS buffer (PBS containing 0.5% BSA). Alexa647 labeled goat anti-human antibody was added as a secondary antibody, and the samples were incubated on ice for another 1 hour. Samples were washed and analyzed using a BD FACS Canto (BD Biosciences).
FACS measurement for MDR1 binding was performed as described in Example 1.

T1 sequence (Q9NZQ7 19-290): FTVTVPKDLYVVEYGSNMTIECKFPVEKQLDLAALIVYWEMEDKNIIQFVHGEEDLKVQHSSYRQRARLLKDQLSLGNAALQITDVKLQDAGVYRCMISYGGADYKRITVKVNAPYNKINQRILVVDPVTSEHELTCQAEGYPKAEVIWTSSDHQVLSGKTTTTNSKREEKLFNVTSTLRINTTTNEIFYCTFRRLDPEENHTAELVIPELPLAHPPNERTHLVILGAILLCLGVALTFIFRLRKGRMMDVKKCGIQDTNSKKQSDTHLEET

binding to cynomolgus erythrocytes (cynomolgus RBCs): does not significantly bind
Molecule: 5F9/MRK16: anti-CD47 antibody with two 5F9 heavy chains and two MRK16 light chains
binding to human erythrocytes [1]: does not significantly bind | effect on tumor volume with paclitaxel (chemosensitization) [2]: not observed | effect on tumor volume without paclitaxel [2]: no significant effect on tumor volume

Molecule: 15D3/MRK16: anti-MDR1 antibody with two 15D3 heavy chains and two MRK16 light chains
effect on tumor volume with paclitaxel (chemosensitization) [2]: rendered the chemoresistant N6ADR cells sensitive to paclitaxel | effect on tumor volume without paclitaxel [2]: no significant effect on tumor volume

Molecule: CC[C@]1(O)C[C@H]2CN(CCc3c([nH]c4ccccc34)[C@@](C(=O)OC)(c3cc4c(cc3OC)N(C=O)[C@H]3[C@@](O)(C(=O)OC)[C@H](OC(C)=O)[C@]5(CC)C=CCN6CC[C@]43[C@@H]65)C2)C1 [Vincristine alone, vincristine]
IC50 (N6/ADR cells): 543 nM

Molecule: CC(=O)O[C@H]1C(=O)[C@@]2(C)[C@H]([C@H](OC(=O)c3ccccc3)[C@]3(O)C[C@H](OC(=O)[C@H](O)[C@@H](NC(=O)c4ccccc4)c4ccccc4)C(C)=C1C3(C)C)[C@]1(OC(C)=O)CO[C@@H]1C[C@@H]2O [paclitaxel, reference compound]
erythema at the infusion site [3]: minimal erythema | tumor growth inhibition (NALM6 cells): significant (p<0.0001) tumor growth inhibition | tumor growth inhibition (NALM6 ADR cells; paclitaxel 5 mg/kg): significantly less tumor growth inhibition | tumor growth inhibition (NALM6 ADR cells; paclitaxel 20 mg/kg): modest inhibition

Molecule: C/C=C/C[C@@H](C)C(=O)[C@H]1C(=O)N[C@@H](C(C)C)C(=O)N(C)CC(=O)N(C)[C@@H](CC(C)C)C(=O)N[C@@H](C(C)C)C(=O)N(C)[C@@H](CC(C)C)C(=O)N[C@@H](C)C(=O)N[C@H](C)C(=O)N(C)[C@@H](CC(C)C)C(=O)N(C)[C@@H](CC(C)C)C(=O)N(C)[C@@H](C(C)C)C(=O)N1C [valspodar, reference compound]
body weight (NALM6 ADR cells; valspodar result in combination with paclitaxel 20 mg/kg): significant reduction in body weight

EC50 [4]: 0.29 nM
Molecule: atezolizumab

Molecule: necitumumab
binding to MDR1 by FACS [5]: did not show significant binding

Source: patent publication US12331121B2, “Efflux pump-cancer antigen multi-specific antibodies and compositions, reagents, kits and methods related thereto” (William Robert Arathoon Living Trust Dated August 29, 2016, priority 2019, dated 2025)
